Measurements taken from PubChem BioAssay (NCI).
Values joined by “and” are separate entries in the source; they are usually repeats but may differ in a detail not shown here. Equal entries are not always repeated.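 The compound was tested at five concentrations on cells cultured in 96-well plates, with a 48-hour exposure period. Here, GI50 denotes the concentration required for 50% inhibition of growth. TGI marks complete inhibition of growth.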

How the values were obtained:
Test in all cases: DTP human tumour cell line panel, 48 h
[1] = test system: A549 NSCLC
[2] = test system: PC-3 prostate
[3] = test system: UO-31 renal
[4] = test system: HT29 colon
[5] = test system: M14 melanoma
[6] = test system: SR leukemia
[7] = test system: MDA-MB-231 breast
[8] = test system: U251 CNS
[9] = test system: CAKI-1 renal
[10] = test system: NCI/ADR-RES ovarian

Row | SMILES | TGI [1] [µM] | TGI [2] [µM] | TGI [3] [µM] | TGI [4] [µM] | TGI [5] [µM] | TGI [6] [µM] | TGI [7] [µM] | TGI [8] [µM] | TGI [9] [µM] | GI50 [1] [µM] | GI50 [2] [µM] | GI50 [3] [µM] | GI50 [5] [µM] | GI50 [6] [µM] | GI50 [7] [µM] | GI50 [8] [µM] | GI50 [9] [µM] | GI50 [4] [µM] | GI50 [10] | TGI [10]
1 | NC(N)=NS(=O)(=O)c1ccc(NCc2c3ccccc3nc3ccccc23)cc1 | > 100 | > 100 | 87.4 | > 100 | 64.7 | 12.6 | > 100 | 10.9 | 69.2 |  |  |  |  |  |  |  |  |  |  | 
2 | OCCCN=NNc1ccc(-c2nc3ccccc3[nH]2)cc1 | > 100 | 77.5 | 78.1 |  | 69.4 | > 100 | 12.7 | 4.76 | 39.3 | 2.62 | 24.1 | 23.9 | 39.9 | 29.9 | 3.31 | 2.07 | 15.4 |  |  | 
3 | Cn1c2c(c3ccccc31)C1CCCCC1C1C(=O)NC(=O)C21 (configuration not stated) | > 100 |  | > 100 | > 100 | > 100 | > 100 |  | > 100 |  |  |  |  |  |  |  |  |  |  |  | 
4 | N#CC(C(=O)/C(=N\Nc1nc(=S)[nH]n1N)C(C#N)c1ccc(Cl)cc1)c1ccc(Cl)cc1 (configuration not stated) | > 100 |  | > 100 | > 100 | > 100 |  |  | > 100 | > 100 |  |  |  |  |  |  |  |  |  |  | 
5 | O=C(CC1(O)C(=O)Nc2ccccc21)c1ccccc1Cl (configuration not stated) | > 100 |  | > 100 | > 100 | > 100 |  |  |  | > 100 |  |  |  |  |  |  |  |  |  |  | 
6 | COc1cc(C(=O)/C=C/c2cc(C(=O)c3cc(OC)c(OC)c(OC)c3)ccc2OC)ccc1N | 29 | 7.4 | 2.12 | 1.56 | 3.06 |  | > 100 | 2.22 | 19.4 | 3.2 | 1.8 | 0.762 | 0.752 |  | 0.713 | 1.02 | 0.669 | 0.422 | 0.388 µM | 2.51 µM
7 | CC/C=C1\N=C(c2ccc(Cl)cc2)OC1=O | > 100 |  | > 100 | > 100 | > 100 |  |  |  | > 100 |  |  |  |  |  |  |  |  |  |  | 
8 | Cc1ccc(-c2nc(SCC(=O)O)n[nH]2)cc1 | > 100 |  | > 100 | > 100 | > 100 | > 100 |  | > 100 | > 100 |  |  |  |  |  |  |  |  |  |  | 
9 | COc1cc(/C=C/c2cc(/C=C/c3ccc(O)c(OC)c3)n(-c3c(C)cccc3C)c(=O)n2)ccc1O | 7.6 | 6.52 | 2.53 | 4.71 |  |  | 9.95 | 4.08 | 14.9 | 1.18 | 1.17 | 0.352 |  |  | 1.76 | 0.635 | 0.859 | 2.13 | 1.42 µM | 5.77 µM
10 | O=S(O)CCCCCSSCCCCSSCCCCCS(=O)O | > 100 |  | > 100 | > 100 | > 100 |  |  | > 100 | > 100 |  |  |  |  |  |  |  |  |  |  | 
11 | CS(=O)CCCCCN=C=S (configuration not stated) | 24.2 | 25.6 | 17.2 | 11.1 | 14.6 |  | 17.4 | 15.8 | 13.8 | 7.52 | 11.6 | 4 | 3.3 |  | 4.76 | 4.42 | 3.69 | 3.47 | 4.72 µM | 22 µM
12 | O=C(CO)CC(=O)C(=O)Nc1nc([N+](=O)[O-])cs1 | > 100 |  | > 100 | > 100 | > 100 | > 100 |  | > 100 | > 100 |  |  |  |  |  |  |  |  |  |  | 
13 | Cc1ccc(NC(=O)c2cccc([N+](=O)[O-])c2O)c([N+](=O)[O-])c1 | 68 |  | 45.4 | 69.9 | 30.9 |  |  | 38.9 | > 100 |  |  |  |  |  |  |  |  |  |  | 
14 | N/N=C1\C(=O)N(C2CCCCC2)C(=O)C1C(=O)NC1CCCCC1 (configuration not stated) | > 100 |  | > 100 | > 100 | > 100 | > 100 |  | > 100 | > 100 |  |  |  |  |  |  |  |  |  |  | 
15 | COc1ccc(-c2ccc(/C=N/n3c(COc4ccccc4Cl)nn(CN4CCN(C)CC4)c3=S)o2)c([N+](=O)[O-])c1 | 36.7 | 58.2 | > 100 | 55.9 | 34.2 |  | 37.5 | 27.8 | 14.6 | 14.1 | 15.3 | 30.1 | 17.7 |  | 14.6 | 13.2 | 5.19 | 23.5 | 18.5 µM | 41.6 µM
16 | COC1=CC(O)(CC(N)=O)c2ccccc2C1=O (configuration not stated) | > 100 |  | > 100 | > 100 | > 100 | > 100 |  | > 100 | > 100 |  |  |  |  |  |  |  |  |  |  | 
17 | CC(=O)c1c(C(F)(F)F)n([O-])c2ccc(Cl)cc2[n+]1=O | 11.6 | 2.79 |  | > 100 | 5.05 |  | 3.27 | 4.89 | 13.5 | 2.5 |  | 1.92 | 1.78 |  | 1.3 | 0.772 | 3.69 | 1.4 | 3.4 µM | > 23.1 µM
18 | C=C1C[C@](OC)([C@H](O)C(=O)N[C@@H](OC)[C@@H]2C[C@@H](O)C(C)(C)[C@@H](C[C@@H](COC)OC)O2)O[C@H](C)[C@@H]1C | 0.00558 |  | 0.0295 | 0.0177 | 0.0041 | > 1 | 0.00837 | 0.00769 | 0.00544 | 0.00129 |  | 0.00267 | 0.00178 |  | 0.00286 | 0.00175 | 0.00184 | 0.000865 | 0.0141 µM and 0.0297 µM | 0.142 µM and 0.314 µM
19 | COc1ccc2oc3c4c2c1CCC4CCC3=O (configuration not stated) | > 100 |  | 99.5 | > 100 | > 100 | > 100 |  | > 100 |  |  |  |  |  |  |  |  |  |  |  | 
20 | Cc1ccc(NC(=O)NC(=O)c2ccc([N+](=O)[O-])cc2[N+](=O)[O-])cc1Oc1ncc(Cl)cn1 | > 40.2 | 12.2 | 17.3 | 2.57 | 11.3 | 16.9 | 24.2 | 3.83 | 62.9 |  |  |  |  |  |  |  |  |  |  | 
21 | CC1=CC(=O)CCC2(C)C1CC[C@@H]2OC=O (some centres not stated) | > 100 |  | > 100 | > 100 | > 100 | > 100 |  | > 100 | > 100 |  |  |  |  |  |  |  |  |  |  | 
